We go through 41 compounds from patent publication US11498930B2 (BLUERAY THERAPEUTICS (SHANGHAI) CO., LTD., priority 2018, dated 2022).

Each structure is given as a SMILES string.

Usually IC50 stands for the concentration that inhibits the measured activity by half.

In this experiment the target is SHP2^E76A protein (Homo sapiens (Human), UniProt Q06124, E76A). The experiment can be described thus: SHP2 enzyme activity inhibition experiment. Type of experiment: biochemical. The conditions noted are these: SHP2 enzyme activity, Tables 1.1 and 1.2; read-out: IC50. As for the experimental part: Compound powders were dissolved in DMSO to prepare mother liquor.
Sequence of SHP2^E76A protein (Q06124 whole entry E76A): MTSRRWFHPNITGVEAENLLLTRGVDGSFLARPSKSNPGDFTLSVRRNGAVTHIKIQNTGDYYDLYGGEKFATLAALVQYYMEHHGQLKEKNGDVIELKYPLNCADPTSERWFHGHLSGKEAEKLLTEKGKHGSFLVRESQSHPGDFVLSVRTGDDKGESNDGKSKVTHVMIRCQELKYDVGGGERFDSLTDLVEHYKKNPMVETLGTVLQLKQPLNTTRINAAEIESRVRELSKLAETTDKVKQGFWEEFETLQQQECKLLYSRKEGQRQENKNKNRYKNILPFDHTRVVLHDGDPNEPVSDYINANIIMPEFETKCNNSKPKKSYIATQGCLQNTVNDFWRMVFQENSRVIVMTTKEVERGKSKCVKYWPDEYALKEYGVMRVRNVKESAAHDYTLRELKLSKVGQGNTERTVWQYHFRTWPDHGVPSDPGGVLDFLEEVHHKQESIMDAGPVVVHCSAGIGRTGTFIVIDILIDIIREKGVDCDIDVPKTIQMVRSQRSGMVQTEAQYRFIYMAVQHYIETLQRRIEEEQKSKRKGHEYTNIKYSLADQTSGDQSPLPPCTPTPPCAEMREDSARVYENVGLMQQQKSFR
During the experiment, the stock solutions of the compounds were subjected to 3-fold gradient dilution with DMSO, and 10 different test concentrations of each compound were set. […] The protein used was the activated protein SHP^2E76A with amino acid mutation at position 76 of the protein, and the substrate used was DiFMUP (Invitrogen, E12020). […] 50 µL of enzyme solution was added to the detection wells, followed by 50 µL of substrate. […] GraphPad Prism 5 was used for nonlinear regression analysis, and the curve of enzyme activity versus compound concentration was fitted by the equation Y=Bottom+(Top-Bottom)/(1+10^((Log IC50−X)*HillSlope)) to calculate the IC50 value of each compound.
With `C[C@H]1OCC2(CCN(c3ncc(Sc4ccnc(N)c4Cl)c4nncn34)CC2)[C@H]1N`, the half-inhibitory concentration (IC50) lay in the range of 1000 to 10000 nM.

Regarding `C[C@H]1OCC2(CCN(c3ncc(Sc4cccc(Cl)c4Cl)c4nncn34)CC2)[C@H]1N`, the IC50 was 1000 to 10000 nM.

For the compound `C[C@@H]1OCC2(CCN(c3ncc(Sc4cc(N)ncc4Cl)c4nccn34)CC2)[C@@H]1N`, the IC50 is < 100 nM.

Regarding `N[C@@H]1CCCC12CCN(c1ncc(Sc3cccc4c3C(=O)C(=O)N4)c3nccn13)CC2`, the concentration for half-maximal inhibition (IC50) was in the range of 100 to 1000 nM.

Regarding `Cc1nc(N)cc(Sc2cnc(N3CCC4(CCC[C@H]4N)CC3)n3ccnc23)c1Cl`, the IC50 is < 100 nM.

On to `Cc1ncccc1Sc1cnc(N2CCC3(CCC[C@H]3N)CC2)n2ncnc12`, for which the IC50 was 1000 to 10000 nM.

In the case of `Nc1ccc(Sc2cnc(N3CCC4(CCC[C@H]4N)CC3)n3ncnc23)cc1`, the IC50 is 1000 to 10000 nM.

For the compound `CN(C)C(=O)C(=O)Nc1cccc(Sc2cnc(N3CCC4(CCC[C@H]4N)CC3)n3ccnc23)c1Cl`, the 50% inhibitory concentration (IC50) was 100 to 1000 nM.

With `Cc1nccc(Sc2cnc(N3CCC4(CC3)COC[C@H]4N)n3cnnc23)c1Cl`, the concentration for half-maximal inhibition (IC50) lay within 100 to 1000 nM.

With `CC1(N)CCN(c2ncc(-c3cccc(Cl)c3Cl)c3nncn23)CC1` [1-(8-(2,3-dichlorophenyl)-[1,2,4]triazolo[4,3-c]pyrimidin-5-yl)-4-methylpiperidin-4-amine], the IC50 lay within 1000 to 10000 nM.

With `CC1(N)CCN(c2ncc(Sc3cccc(Cl)c3Cl)c3ncnn23)CC1` [1-(8-((2,3-dichlorophenyl)thio)-[1,2,4]triazolo[1,5-c]pyrimidin-5-yl)-4-methylpiperidin-4-amine], the IC50 lay in the range of 1000 to 10000 nM.

With `NC1CCN(c2ncc(Sc3cccc(Cl)c3Cl)c3nncn23)CC1` [1-(8-((2,3-dichlorophenyl)thio)-[1,2,4]triazolo[4,3-c]pyrimidin-5-yl)piperidin-4-amine], the IC50 lay in the range of 1000 to 10000 nM.

As to `NC1CCN(c2ncc(Sc3cccc(Cl)c3Cl)c3nccn23)CC1` [1-(8-((2,3-dichlorophenyl)thio)imidazo[1,2-c]pyrimidin-5-yl)piperidin-4-amine], the half-maximal inhibitory concentration (IC50) is 100 to 1000 nM.

As to `NCCC1CCN(c2ncc(Sc3cccc(Cl)c3Cl)c3nncn23)CC1` [2-(1-(8-((2,3-dichlorophenyl)thio)-[1,2,4]triazolo[4,3-c]pyrimidin-5-yl)piperidin-4-yl)ethan-1-amine], the concentration for half-maximal inhibition (IC50) was 1000 to 10000 nM.

Turning to `CC1(N)CCN(c2ncc(Sc3ccnc(N)c3Cl)c3nccn23)CC1` [4-((5-(4-amino-4-methylpiperidin-1-yl)imidazo[1,2-c]pyrimidin-8-yl)thio)-3-chloropyridin-2-amine], the IC50 fell in the range of 100 to 1000 nM.

With `NC1CC2(CCN(c3ncc(Sc4cccc(Cl)c4Cl)c4nncn34)CC2)C1` [7-(8-((2,3-dichlorophenyl)thio)-[1,2,4]triazolo[4,3-c]pyrimidin-5-yl)-7-azaspiro[3.5]nonan-2-amine], the IC50 is 1000 to 10000 nM.

For `NC1CC2(CCN(c3ncc(Sc4cccc(Cl)c4Cl)c4nccn34)CC2)C1` [7-(8-((2,3-dichlorophenyl)thio)imidazo[1,2-c]pyrimidin-5-yl)-7-azaspiro[3.5]nonan-2-amine], the half-inhibitory concentration (IC50) lay in the range of 100 to 1000 nM.

`Clc1cccc(Sc2cnc(N3CCC4(CCCN4)CC3)n3cnnc23)c1Cl` [8-(8-((2,3-dichlorophenyl)thio)-[1,2,4]triazolo[4,3-c]pyrimidin-5-yl)-1,8-diazaspiro[4.5]decane]: the half-inhibitory concentration (IC50) was 1000 to 10000 nM.

On to `CC1(N)COCC12CCN(c1ncc(Sc3cccc(Cl)c3Cl)c3nncn13)CC2` (centres unmarked) [8-(8-((2,3-dichlorophenyl)thio)-[1,2,4]triazolo[4,3-c]pyrimidin-5-yl)-4-methyl-2-oxa-8-azaspiro[4.5]decan-4-amine], for which the 50% inhibitory concentration (IC50) was in the range of 1000 to 10000 nM.

As for `CC1CN(c2ncc(Sc3cccc(Cl)c3Cl)c3nncn23)CC(C)N1` (centres unmarked) [8-((2,3-dichlorophenyl)thio)-5-(3,5-dimethylpiperazin-1-yl)-[1,2,4]triazolo[4,3-c]pyrimidine], the IC50 was in the range of 1000 to 10000 nM.

As to `NCC1(c2ccccc2)CCN(c2ncc(Sc3cccc(Cl)c3Cl)c3nccn23)CC1` [(1-(8-((2,3-dichlorophenyl)thio)imidazo[1,2-c]pyrimidin-5-yl)-4-phenylpiperidin-4-yl)methanamine], the IC50 lay within 100 to 1000 nM.

Consider `NCC1CCN(c2ncc(Sc3cccc(Cl)c3Cl)c3nccn23)CC1` [(1-(8-((2,3-dichlorophenyl)thio)imidazo[1,2-c]pyrimidin-5-yl)piperidin-4-yl)methanamine], for which the IC50 is 100 to 1000 nM.

In the case of `NCC1CCN(c2ncc(Sc3cccc(Cl)c3Cl)c3nccn23)C1` (centres unmarked) [(1-(8-((2,3-dichlorophenyl)thio)imidazo[1,2-c]pyrimidin-5-yl)pyrrolidin-3-yl)methanamine], the IC50 lay in the range of 100 to 1000 nM.

As for `C[C@H]1OCC2(CCN(c3ncc(Sc4cccc(Cl)c4Cl)c4ncnn34)CC2)[C@H]1N` [(3R,4R)-8-(8-((2,3-dichlorophenyl)thio)-[1,2,4]triazolo[1,5-c]pyrimidin-5-yl)-3-methyl-2-oxa-8-azaspiro[4.5]decan-4-amine], the IC50 fell in the range of 1000 to 10000 nM.

On to `C[C@H]1OCC2(CCN(c3ncc(Sc4cccc(Cl)c4Cl)c4ncnn34)CC2)[C@@H]1N` [(3R,4S)-8-(8-((2,3-dichlorophenyl)thio)-[1,2,4]triazolo[1,5-c]pyrimidin-5-yl)-3-methyl-2-oxa-8-azaspiro[4.5]decan-4-amine], for which the half-maximal inhibitory concentration (IC50) was in the range of 100 to 1000 nM.

Take `Cc1nccc(Sc2cnc(N3CCC4(CC3)CO[C@H](C)[C@H]4N)n3cnnc23)c1Cl` [(3R,4S)-8-(8-((3-chloro-2-methylpyridin-4-yl)thio)-[1,2,4]triazolo[4,3-c]pyrimidin-5-yl)-3-methyl-2-oxa-8-azaspiro[4.5]decan-4-amine]: the half-inhibitory concentration (IC50) was < 100 nM.

Turning to `N[C@@H]1CCC2CN(c3ncc(Sc4cccc(Cl)c4Cl)c4nncn34)CC21` (stereo partly drawn) [(4R)-2-(8-((2,3-dichlorophenyl)thio)-[1,2,4]triazolo[4,3-c]pyrimidin-5-yl)octahydrocyclopenta[c]pyrrol-4-amine], the IC50 is 1000 to 10000 nM.

With `N[C@@H]1CCCN(c2ncc(Sc3cccc(Cl)c3Cl)c3nccn23)CC1` [(R)-1-(8-((2,3-dichlorophenyl)thio)imidazo[1,2-c]pyrimidin-5-yl)azepan-4-amine], the IC50 fell in the range of 100 to 1000 nM.

As to `N[C@@H]1CCCCC12CCN(c1ncc(Sc3cccc(Cl)c3Cl)c3nccn13)CC2` [(R)-3-(8-((2,3-dichlorophenyl)thio)imidazo[1,2-c]pyrimidin-5-yl)-3-azaspiro[5.5]undecan-7-amine], the half-maximal inhibitory concentration (IC50) was 100 to 1000 nM.

Turning to `N[C@@H]1CCCC12CCN(c1ncc(-c3cccc(Cl)c3Cl)c3nncn13)CC2` [(R)-8-(8-(2,3-dichlorophenyl)-[1,2,4]triazolo[4,3-c]pyrimidin-5-yl)-8-azaspiro[4.5]decan-1-amine], the IC50 was 1000 to 10000 nM.

`N[C@@H]1CCCC12CCN(c1ncc(-c3cccc(Cl)c3Cl)c3nccn13)CC2` [(R)-8-(8-(2,3-dichlorophenyl)imidazo[1,2-c]pyrimidin-5-yl)-8-azaspiro[4.5]decan-1-amine]: the IC50 was in the range of 100 to 1000 nM.

Consider `Cn1ccnc1Sc1cnc(N2CCC3(CCC[C@H]3N)CC2)n2cnnc12` [(R)-8-(8-((1-methyl-1H-imidazol-2-yl)thio)-[1,2,4]triazolo[4,3-c]pyrimidin-5-yl)-8-azaspiro[4.5]decan-1-amine], for which the half-inhibitory concentration (IC50) was in the range of 1000 to 10000 nM.

Consider `CN[C@@H]1CCCC12CCN(c1ncc(Sc3cccc(Cl)c3Cl)c3nncn13)CC2` [(R)-8-(8-((2,3-dichlorophenyl)thio)-[1,2,4]triazolo[4,3-c]pyrimidin-5-yl)-N-methyl-8-azaspiro[4.5]decan-1-amine], for which the IC50 is 1000 to 10000 nM.

With `CC1(C)COC2(CCN(c3ncc(Sc4cccc(Cl)c4Cl)c4nccn34)CC2)[C@@H]1N` [(R)-8-(8-((2,3-dichlorophenyl)thio)imidazo[1,2-c]pyrimidin-5-yl)-3,3-dimethyl-1-oxa-8-azaspiro[4.5]decan-4-amine], the IC50 was in the range of 100 to 1000 nM.

Turning to `N[C@@H]1CCCC12CCN(c1ncc(Sc3ccc4c(c3)CCO4)c3nccn13)CC2` [(R)-8-(8-((2,3-dihydrobenzofuran-5-yl)thio)imidazo[1,2-c]pyrimidin-5-yl)-8-azaspiro[4.5]decan-1-amine], the IC50 lay within 100 to 1000 nM.

Turning to `N[C@@H]1CCCC12CCN(c1ncc(Sc3ccc(Cl)cc3Cl)c3nccn13)CC2` [(R)-8-(8-((2,4-dichlorophenyl)thio)imidazo[1,2-c]pyrimidin-5-yl)-8-azaspiro[4.5]decan-1-amine], the IC50 is 100 to 1000 nM.

As to `N[C@@H]1CCCC12CCN(c1ncc(Sc3c(Cl)cccc3Cl)c3nncn13)CC2` [(R)-8-(8-((2,6-dichlorophenyl)thio)-[1,2,4]triazolo[4,3-c]pyrimidin-5-yl)-8-azaspiro[4.5]decan-1-amine], the half-inhibitory concentration (IC50) is 1000 to 10000 nM.

For the compound `Nc1cc(Sc2cnc(N3CCC4(CCC[C@H]4N)CC3)n3cnnc23)c(Cl)cn1` [(R)-8-(8-((2-amino-5-chloropyridin-4-yl)thio)-[1,2,4]triazolo[4,3-c]pyrimidin-5-yl)-8-azaspiro[4.5]decan-1-amine], the IC50 lay within 1000 to 10000 nM.

On to `N[C@@H]1CCCC12CCN(c1ncc(Sc3ccccc3Cl)c3nccn13)CC2` [(R)-8-(8-((2-chlorophenyl)thio)imidazo[1,2-c]pyrimidin-5-yl)-8-azaspiro[4.5]decan-1-amine], for which the half-inhibitory concentration (IC50) is < 100 nM.

Consider `N[C@@H]1CCCC12CCN(c1ncc(Sc3cccnc3Cl)c3nccn13)CC2` [(R)-8-(8-((2-chloropyridin-3-yl)thio)imidazo[1,2-c]pyrimidin-5-yl)-8-azaspiro[4.5]decan-1-amine], for which the IC50 is < 100 nM.

For the compound `N[C@@H]1CCCC12CCN(c1ncc(Sc3ccnc(Cl)n3)c3nccn13)CC2` [(R)-8-(8-((2-chloropyrimidin-4-yl)thio)imidazo[1,2-c]pyrimidin-5-yl)-8-azaspiro[4.5]decan-1-amine], the half-maximal inhibitory concentration (IC50) was < 100 nM.
